Laboratory results reported in the NIST ThermoML archive (doi:10.1021/acs.jced.7b00176).
± gives the expanded uncertainty stated by the source.

Assay: xn = mol fraction of the nth substance listed
Details: Liquid, Vibrating tube method

COCCOCCOC [2,5,8-trioxanonane] + CCCCO
Details | mass density [kg/m3]
283.55 K, 100000 kPa, x2 = 0.5469 | 947.45 ± 0.67
283.56 K, 40000 kPa, x2 = 0.5469 | 918.49 ± 0.64
283.56 K, 60000 kPa, x2 = 0.5469 | 928.98 ± 0.66
283.56 K, 80000 kPa, x2 = 0.5469 | 938.59 ± 0.66
283.58 K, 5000 kPa, x2 = 0.5469 | 897.03 ± 0.62
283.58 K, 10000 kPa, x2 = 0.5469 | 900.4 ± 0.62
283.58 K, 20000 kPa, x2 = 0.5469 | 906.81 ± 0.63
283.58 K, 30000 kPa, x2 = 0.5469 | 912.81 ± 0.63
283.59 K, 100 kPa, x2 = 0.5469 | 893.58 ± 0.63
283.59 K, 1000 kPa, x2 = 0.5469 | 894.22 ± 0.62
283.62 K, 100 kPa, x2 = 0.7308 | 866.59 ± 0.62
283.62 K, 1000 kPa, x2 = 0.7308 | 867.24 ± 0.61
283.62 K, 5000 kPa, x2 = 0.7308 | 870.06 ± 0.62
283.62 K, 10000 kPa, x2 = 0.7308 | 873.45 ± 0.62
283.62 K, 20000 kPa, x2 = 0.7308 | 879.83 ± 0.63
283.62 K, 30000 kPa, x2 = 0.7308 | 885.83 ± 0.64
283.62 K, 40000 kPa, x2 = 0.7308 | 891.47 ± 0.65
283.62 K, 60000 kPa, x2 = 0.7308 | 901.94 ± 0.68
283.62 K, 80000 kPa, x2 = 0.7308 | 911.46 ± 0.7
283.62 K, 100000 kPa, x2 = 0.7308 | 920.22 ± 0.71
283.65 K, 100 kPa, x2 = 0.3116 | 922.56 ± 0.64
283.65 K, 5000 kPa, x2 = 0.3116 | 926 ± 0.61
283.65 K, 20000 kPa, x2 = 0.3116 | 935.72 ± 0.62
283.65 K, 30000 kPa, x2 = 0.3116 | 941.81 ± 0.62
283.65 K, 40000 kPa, x2 = 0.3116 | 947.48 ± 0.62
283.65 K, 60000 kPa, x2 = 0.3116 | 958.06 ± 0.63
283.65 K, 80000 kPa, x2 = 0.3116 | 967.62 ± 0.63
283.65 K, 100000 kPa, x2 = 0.3116 | 976.51 ± 0.63
283.66 K, 1000 kPa, x2 = 0.3116 | 923.21 ± 0.62
283.66 K, 10000 kPa, x2 = 0.3116 | 929.34 ± 0.61
283.66 K, 20000 kPa, x2 = 0.8787 | 855.19 ± 0.64
283.66 K, 30000 kPa, x2 = 0.8787 | 861.18 ± 0.65
283.66 K, 40000 kPa, x2 = 0.8787 | 866.81 ± 0.67
283.66 K, 60000 kPa, x2 = 0.8787 | 877.23 ± 0.71
283.66 K, 80000 kPa, x2 = 0.8787 | 886.62 ± 0.74
283.66 K, 100000 kPa, x2 = 0.8787 | 895.34 ± 0.77
283.67 K, 100 kPa, x2 = 0.8787 | 841.93 ± 0.63
283.67 K, 1000 kPa, x2 = 0.8787 | 842.59 ± 0.62
283.67 K, 5000 kPa, x2 = 0.8787 | 845.4 ± 0.62
283.67 K, 10000 kPa, x2 = 0.8787 | 848.78 ± 0.62
283.67 K, 40000 kPa, x2 = 0 | 978.49 ± 0.61
283.67 K, 60000 kPa, x2 = 0 | 989.12 ± 0.62
283.67 K, 80000 kPa, x2 = 0 | 998.75 ± 0.61
283.67 K, 100000 kPa, x2 = 0 | 1007.71 ± 0.62
283.68 K, 10000 kPa, x2 = 0 | 960.29 ± 0.61
283.68 K, 20000 kPa, x2 = 0 | 966.68 ± 0.61
283.68 K, 30000 kPa, x2 = 0 | 972.8 ± 0.61
283.69 K, 100 kPa, x2 = 0 | 953.48 ± 0.61
283.69 K, 1000 kPa, x2 = 0 | 954.15 ± 0.61
283.69 K, 5000 kPa, x2 = 0 | 956.94 ± 0.61
303.46 K, 80000 kPa, x2 = 0.8787 | 874 ± 0.76
303.46 K, 100000 kPa, x2 = 0.8787 | 883.23 ± 0.8
303.47 K, 100 kPa, x2 = 0 | 933.69 ± 0.61
303.47 K, 1000 kPa, x2 = 0 | 934.43 ± 0.61
303.47 K, 30000 kPa, x2 = 0.8787 | 846.7 ± 0.66
303.47 K, 60000 kPa, x2 = 0.8787 | 863.93 ± 0.73
303.48 K, 5000 kPa, x2 = 0 | 937.55 ± 0.61
303.48 K, 10000 kPa, x2 = 0 | 941.31 ± 0.61
303.48 K, 10000 kPa, x2 = 0.8787 | 833.12 ± 0.63
303.48 K, 20000 kPa, x2 = 0.8787 | 840.14 ± 0.64
303.48 K, 40000 kPa, x2 = 0.8787 | 852.78 ± 0.68
303.49 K, 100 kPa, x2 = 0.8787 | 825.51 ± 0.62
303.49 K, 5000 kPa, x2 = 0.8787 | 829.38 ± 0.62
303.49 K, 20000 kPa, x2 = 0 | 948.42 ± 0.63
303.49 K, 30000 kPa, x2 = 0 | 955.17 ± 0.63
303.49 K, 40000 kPa, x2 = 0 | 961.41 ± 0.63
303.49 K, 60000 kPa, x2 = 0 | 973.02 ± 0.62
303.5 K, 1000 kPa, x2 = 0.7308 | 850.15 ± 0.61
303.5 K, 1000 kPa, x2 = 0.8787 | 826.23 ± 0.61
303.5 K, 5000 kPa, x2 = 0.7308 | 853.29 ± 0.62
303.5 K, 10000 kPa, x2 = 0.7308 | 857.01 ± 0.62
303.5 K, 20000 kPa, x2 = 0.7308 | 864.06 ± 0.64
303.5 K, 30000 kPa, x2 = 0.7308 | 870.65 ± 0.65
303.5 K, 40000 kPa, x2 = 0.5469 | 902.93 ± 0.65
303.5 K, 40000 kPa, x2 = 0.7308 | 876.8 ± 0.66
303.5 K, 60000 kPa, x2 = 0.5469 | 914.29 ± 0.67
303.5 K, 60000 kPa, x2 = 0.7308 | 888.07 ± 0.7
303.5 K, 79990 kPa, x2 = 0.7308 | 898.18 ± 0.72
303.5 K, 80000 kPa, x2 = 0 | 983.33 ± 0.62
303.5 K, 80000 kPa, x2 = 0.5469 | 924.52 ± 0.68
303.5 K, 100000 kPa, x2 = 0 | 992.97 ± 0.62
303.5 K, 100000 kPa, x2 = 0.5469 | 933.93 ± 0.69
303.5 K, 100000 kPa, x2 = 0.7308 | 907.47 ± 0.74
303.51 K, 100 kPa, x2 = 0.5469 | 875.36 ± 0.62
303.51 K, 100 kPa, x2 = 0.7308 | 849.42 ± 0.62
303.51 K, 1000 kPa, x2 = 0.5469 | 876.1 ± 0.61
303.51 K, 10000 kPa, x2 = 0.5469 | 883.02 ± 0.62
303.51 K, 20000 kPa, x2 = 0.5469 | 890.1 ± 0.63
303.51 K, 30000 kPa, x2 = 0.5469 | 896.73 ± 0.64
303.52 K, 5000 kPa, x2 = 0.5469 | 879.25 ± 0.62
303.55 K, 100000 kPa, x2 = 0.3116 | 962.26 ± 0.64
303.56 K, 10000 kPa, x2 = 0.3116 | 911.05 ± 0.62
303.56 K, 20000 kPa, x2 = 0.3116 | 918.17 ± 0.62
303.56 K, 30000 kPa, x2 = 0.3116 | 924.8 ± 0.63
303.56 K, 40000 kPa, x2 = 0.3116 | 931.1 ± 0.63
303.56 K, 60000 kPa, x2 = 0.3116 | 942.54 ± 0.65
303.56 K, 80000 kPa, x2 = 0.3116 | 952.82 ± 0.65
303.57 K, 100 kPa, x2 = 0.3116 | 903.4 ± 0.62
303.57 K, 1000 kPa, x2 = 0.3116 | 904.14 ± 0.61
303.57 K, 5000 kPa, x2 = 0.3116 | 907.29 ± 0.61
322.62 K, 100 kPa, x2 = 0 | 914.41 ± 0.61
322.62 K, 1000 kPa, x2 = 0 | 915.3 ± 0.61
322.62 K, 5000 kPa, x2 = 0 | 918.77 ± 0.61
322.62 K, 10000 kPa, x2 = 0 | 923.02 ± 0.61
322.62 K, 20000 kPa, x2 = 0 | 930.99 ± 0.62
322.62 K, 30000 kPa, x2 = 0 | 938.31 ± 0.62
322.62 K, 40000 kPa, x2 = 0 | 945.16 ± 0.62
322.62 K, 60000 kPa, x2 = 0 | 957.74 ± 0.64
322.62 K, 80000 kPa, x2 = 0 | 968.98 ± 0.63
322.62 K, 100000 kPa, x2 = 0 | 979.2 ± 0.63
323.22 K, 100 kPa, x2 = 0.5469 | 857.29 ± 0.63
323.22 K, 1000 kPa, x2 = 0.5469 | 858.13 ± 0.61
323.22 K, 5000 kPa, x2 = 0.5469 | 861.6 ± 0.62
323.23 K, 10000 kPa, x2 = 0.5469 | 865.79 ± 0.62
323.23 K, 20000 kPa, x2 = 0.5469 | 873.63 ± 0.64
323.23 K, 30000 kPa, x2 = 0.5469 | 880.92 ± 0.65
323.23 K, 40000 kPa, x2 = 0.5469 | 887.67 ± 0.66
323.23 K, 60000 kPa, x2 = 0.5469 | 899.96 ± 0.69
323.24 K, 80000 kPa, x2 = 0.5469 | 911.05 ± 0.7
323.24 K, 100000 kPa, x2 = 0.5469 | 920.96 ± 0.71
323.26 K, 100 kPa, x2 = 0.7308 | 831.9 ± 0.62
323.26 K, 1000 kPa, x2 = 0.7308 | 832.7 ± 0.61
323.26 K, 5000 kPa, x2 = 0.7308 | 836.19 ± 0.62
323.26 K, 10000 kPa, x2 = 0.7308 | 840.37 ± 0.63
323.26 K, 20000 kPa, x2 = 0.7308 | 848.19 ± 0.64
